Tests used:
[1] = tested on: (14C) cholesterol synthesis from (14C) acetate; test: in vivo inhibition of (14C) cholesterol prepared from 14C acetate in rats; conditions: for cholesterol lowering activity (in words): in vivo
Description: The in vivo experiments were conducted using radiolabelled (^14C) acetate which was administered to the rats converting it into (^14C) cholesterol. This synthesis was measured by quantitating (^14C) cholesterol inhibited by HMG-CoA reductase inhibitor.

[2] = target: T1, HMG-CoA reductase (Homo sapiens, UniProt P04035); test: in vitro HMG-CoA reductase inhibitory activity; type: biochemical
T1 sequence (P04035 1-888): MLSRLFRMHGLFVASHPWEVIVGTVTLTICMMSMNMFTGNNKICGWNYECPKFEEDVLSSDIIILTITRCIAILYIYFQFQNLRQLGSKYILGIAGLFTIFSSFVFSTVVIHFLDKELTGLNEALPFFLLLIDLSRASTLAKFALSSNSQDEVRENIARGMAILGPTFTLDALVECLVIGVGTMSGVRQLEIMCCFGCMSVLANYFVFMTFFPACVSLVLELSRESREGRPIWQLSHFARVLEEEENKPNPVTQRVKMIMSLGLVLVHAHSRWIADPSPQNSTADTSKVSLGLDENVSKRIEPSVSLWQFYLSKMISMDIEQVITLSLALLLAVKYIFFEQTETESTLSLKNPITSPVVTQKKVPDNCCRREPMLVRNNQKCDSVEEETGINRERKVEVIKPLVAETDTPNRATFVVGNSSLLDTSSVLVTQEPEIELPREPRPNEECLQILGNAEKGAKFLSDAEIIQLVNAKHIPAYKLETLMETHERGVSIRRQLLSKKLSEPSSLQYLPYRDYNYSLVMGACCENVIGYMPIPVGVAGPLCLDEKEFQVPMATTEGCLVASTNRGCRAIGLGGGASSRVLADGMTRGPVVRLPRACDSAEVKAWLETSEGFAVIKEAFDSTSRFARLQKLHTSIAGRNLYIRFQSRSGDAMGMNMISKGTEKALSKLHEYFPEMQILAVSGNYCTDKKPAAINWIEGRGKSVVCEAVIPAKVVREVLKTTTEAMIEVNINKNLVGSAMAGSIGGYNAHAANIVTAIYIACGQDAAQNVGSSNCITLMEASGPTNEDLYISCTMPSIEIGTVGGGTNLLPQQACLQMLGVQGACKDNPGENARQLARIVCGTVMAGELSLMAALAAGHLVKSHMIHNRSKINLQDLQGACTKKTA
Description: The in vivo and in vitro biological activity of the methyl analog of simvastatin isomeric compounds of structural formulae VIIc and VIIa was carried out on a HMG-CoA reductase inhibitory model. The compounds were tested at three concentrations (10^−5, 10^−7 and 10^−9 M) for the in vitro activity.

[3] = target: T1, HMG-CoA reductase; conditions: cited from earlier work

Structure (SMILES) | % inhibition of (14C) cholesterol prepared from 14C acetate ([1]; 1 mg/kg i.p.) [%] | % inhibition of (14C) cholesterol prepared from 14C acetate ([1]; 1 mg/kg orally) [%] | % inhibition of (14C) cholesterol prepared from 14C acetate ([1]; 5 mg/kg orally) [%] | cholesterol lowering activity (in words) [1] | % HMG-CoA reductase inhibition activity ([2]; concentration 10^-5 M) [%] | % HMG-CoA reductase inhibition activity ([2]; concentration 10^-7 M) [%] | % HMG-CoA reductase inhibition activity ([2]; concentration 10^-9 M) [%] | HMG-CoA reductase inhibitory activity (in words) ([2]; tested at 10^-5, 10^-7 and 10^-9 M) | potency relative to mevinolin [3]
CCC(C)(C)C(=O)O[C@H]1C[C@@H](C)C=C2C=C[C@H](C)[C@H](CC[C@@H]3C[C@@H](O)[C@@H](C)C(=O)O3)[C@H]21 [VIIa, 6(R)-[2-[8(S)-[[2,2-Dimethylbutanoyl]oxyl]-2(S),6(R)-dimethyl-1,2,6,7,8,8a(R)-hexahydro-1(S)-napthyl]ethyl]-3(R)-methyl,4(R)-hydroxy-3,4,5,6-tetrahydro-2H-pyran-2-one] | 10 | 0 | 69 | have cholesterol lowering activity | 100 | 93 | 30 | – | –
CCC(C)(C)C(=O)O[C@H]1C[C@@H](C)C=C2C=C[C@H](C)[C@H](CC[C@@H]3C[C@@H](O)[C@H](C)C(=O)O3)[C@H]21 [VIIc, 6(R)-[2-[8(S)-[[2,2-Dimethylbutanoyl]oxyl]-2(S),6(R)-dimethyl-1,2,6,7,8,8a(R)-hexahydro-1(S)-napthyl]ethyl]-3(S)-methyl,4(R)-hydroxy-3,4,5,6-tetrahydro-2H-pyran-2-one] | 8 | 0 | 57 | have cholesterol lowering activity | 99 | 71 | 8 | significant HMG-CoA reductase inhibitory activity | –
CCC(C)(C)C(=O)O[C@H]1C[C@@H](C)C=C2C=C[C@H](C)[C@H](CC[C@@H]3C[C@@H](O)CC(=O)O3)[C@H]21 [simvastatin] | – | – | – | – | – | – | – | – | twice as potent as mevinolin
